Experimental data published in ChEMBL document CHEMBL1201862, “PubChem BioAssay data set” (2004).
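Assay format: 96-well plates, 48-hour exposure. GI50 = concentration required for 50% inhibition of growth.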 The source made the active and inactive calls. Rule as the data show it: active = GI50 up to about 1.1 µM and inactive = higher.

Experiments:
Test in all cases: inhibition of tumour cell growth, NCI panel, 48 h
HL-60 = test system: HL-60
HCC 2998 = test system: HCC 2998
MDA-MB-435 = test system: MDA-MB-435
PC-3 = test system: PC-3
UACC-257 = test system: UACC-257
HOP-92 = test system: HOP-92
CAKI-1 = test system: CAKI-1
RPMI-8226 = test system: RPMI-8226
SNB-75 = test system: SNB-75
OVCAR-3 = test system: OVCAR-3
HCT-116 = test system: HCT-116
RXF 393 = test system: RXF 393
OVCAR-5 = test system: OVCAR-5
K562 = test system: K562
U-251 = test system: U-251
SK-MEL-5 = test system: SK-MEL-5
NCI-H522 = test system: NCI-H522
SK-MEL-28 = test system: SK-MEL-28
HCT-15 = test system: HCT-15
SNB-19 = test system: SNB-19
SK-MEL-2 = test system: SK-MEL-2
HOP-62 = test system: HOP-62
NCI-H460 = test system: NCI-H460
DU-145 = test system: DU-145
M14 = test system: M14
786-0 = test system: 786-0
EKVX = test system: EKVX
MDA-MB-231 = test system: MDA-MB-231
Malme-3M = test system: Malme-3M
OVCAR-8 = test system: OVCAR-8
SW-620 = test system: SW-620
UO-31 = test system: UO-31
MOLT-4 = test system: MOLT-4
A498 = test system: A498
NCI-H226 = test system: NCI-H226
COLO 205 = test system: COLO 205
MDA-N = test system: MDA-N
Hs-578T = test system: Hs-578T
TK-10 = test system: TK-10
HT-29 = test system: HT-29
SF-268 = test system: SF-268
NCI/ADR-RES = test system: NCI/ADR-RES
SF-295 = test system: SF-295
BT-549 = test system: BT-549
MCF7 = test system: MCF7
IGROV-1 = test system: IGROV-1
T47D = test system: T47D
NCI-H23 = test system: NCI-H23
SR = test system: SR
SK-OV-3 = test system: SK-OV-3
UACC-62 = test system: UACC-62
OVCAR-4 = test system: OVCAR-4
A549 = test system: A549
ACHN = test system: ACHN
SF-539 = test system: SF-539
SN12C = test system: SN12C
LOX IMVI = test system: LOX IMVI
KM12 = test system: KM12

For `O=c1c2ccccc2[se]n1-c1cccnc1`, which GI50 (HL-60) is on record?
The GI50 was 30.1 µM (inactive).

And the GI50 (HCC 2998)?
The GI50 was 11.4 µM (inactive).

And the GI50 (MDA-MB-435)?
Its GI50 is 22.2 µM (inactive).

What about the GI50 (PC-3) of the same molecule?
Its GI50 is 22.3 µM (inactive).

What about the GI50 (UACC-257) of the same molecule?
The GI50 was 23.4 µM (inactive).

What about the GI50 (HOP-92) of the same molecule?
The GI50 was 15.9 µM (inactive).

What about the GI50 (CAKI-1) of the same molecule?
The GI50 was 42.3 µM (inactive).

And the GI50 (RPMI-8226)?
The GI50 was 34.5 µM (inactive).

What about the GI50 (SNB-75) of the same molecule?
Its GI50 is 18.1 µM (inactive).

And the GI50 (OVCAR-3)?
The GI50 was 29.1 µM (inactive).

What about the GI50 (HCT-116) of the same molecule?
The GI50 was 30.5 µM (inactive).

And the GI50 (RXF 393)?
Its GI50 is 29.2 µM (inactive).

And the GI50 (OVCAR-5)?
The GI50 was 46.2 µM (inactive).

And the GI50 (K562)?
The GI50 was 40.6 µM (inactive).

And the GI50 (U-251)?
Its GI50 is 26.7 µM (inactive).

And the GI50 (SK-MEL-5)?
Its GI50 is 12.9 µM (inactive).

What about the GI50 (NCI-H522) of the same molecule?
The GI50 was 20.7 µM (inactive).

What about the GI50 (SK-MEL-28) of the same molecule?
Its GI50 is 24.7 µM (inactive).

What about the GI50 (HCT-15) of the same molecule?
Its GI50 is 23.6 µM.

What about the GI50 (SNB-19) of the same molecule?
The GI50 was 49.4 µM (inactive).

And the GI50 (SK-MEL-2)?
The GI50 was 19.3 µM (inactive).

What about the GI50 (HOP-62) of the same molecule?
The GI50 was 24.9 µM (inactive).

And the GI50 (NCI-H460)?
The GI50 was 53.6 µM (inactive).

What about the GI50 (DU-145) of the same molecule?
The GI50 was 18.2 µM (inactive).

What about the GI50 (M14) of the same molecule?
Its GI50 is 30.7 µM (inactive).

What about the GI50 (786-0) of the same molecule?
The GI50 was 31.4 µM (inactive).

What about the GI50 (EKVX) of the same molecule?
The GI50 was 33.4 µM (inactive).

What about the GI50 (MDA-MB-231) of the same molecule?
Its GI50 is 25.1 µM (inactive).

What about the GI50 (Malme-3M) of the same molecule?
The GI50 was 21.7 µM (inactive).

And the GI50 (OVCAR-8)?
The GI50 was 24.9 µM (inactive).

And the GI50 (SW-620)?
Its GI50 is 29 µM (inactive).

What about the GI50 (UO-31) of the same molecule?
The GI50 was 35.2 µM (inactive).

And the GI50 (MOLT-4)?
The GI50 was 31.3 µM (inactive).

What about the GI50 (A498) of the same molecule?
Its GI50 is 24.7 µM (inactive).

What about the GI50 (NCI-H226) of the same molecule?
Its GI50 is 28.4 µM (inactive).

What about the GI50 (COLO 205) of the same molecule?
Its GI50 is 20 µM (inactive).

And the GI50 (MDA-N)?
Its GI50 is 22.6 µM (inactive).

What about the GI50 (Hs-578T) of the same molecule?
The GI50 was 20.1 µM (inactive).

And the GI50 (TK-10)?
Its GI50 is 24.2 µM (inactive).

And the GI50 (HT-29)?
The GI50 was 43.8 µM (inactive).

And the GI50 (SF-268)?
The GI50 was 27 µM (inactive).

And the GI50 (NCI/ADR-RES)?
Its GI50 is 33.5 µM (inactive).

And the GI50 (SF-295)?
Its GI50 is 31.9 µM (inactive).

What about the GI50 (BT-549) of the same molecule?
The GI50 was 31.3 µM (inactive).

And the GI50 (MCF7)?
The GI50 was 29.4 µM (inactive).

What about the GI50 (IGROV-1) of the same molecule?
The GI50 was 19.8 µM (inactive).

What about the GI50 (T47D) of the same molecule?
Its GI50 is 21.7 µM (inactive).

What about the GI50 (NCI-H23) of the same molecule?
The GI50 was 21.4 µM (inactive).

What about the GI50 (SR) of the same molecule?
Its GI50 is 34.7 µM (inactive).

What about the GI50 (SK-OV-3) of the same molecule?
Its GI50 is > 100 µM (inactive).

What about the GI50 (UACC-62) of the same molecule?
The GI50 was 13 µM (inactive).

What about the GI50 (OVCAR-4) of the same molecule?
The GI50 was 36.2 µM (inactive).

And the GI50 (A549)?
Its GI50 is 40.6 µM (inactive).

What about the GI50 (ACHN) of the same molecule?
Its GI50 is 28.1 µM (inactive).

And the GI50 (SF-539)?
Its GI50 is 21.9 µM (inactive).

And the GI50 (SN12C)?
The GI50 was 29.6 µM (inactive).

And the GI50 (LOX IMVI)?
The GI50 was 24.5 µM (inactive).

What about the GI50 (KM12) of the same molecule?
The GI50 was 79.3 µM (inactive).
